How the values were obtained:
[1] = Drug uptake ratio in cynomolgus monkey occipital cortex to cerebellum at 30 to 40 mins postinjection; format: ADME, organism-based, Macaca fascicularis; conditions: in vivo, time 30-40 min
[2] = Drug uptake ratio in cynomolgus monkey globus pallidus to cerebellum at 30 to 40 mins postinjection; format: ADME, organism-based, Macaca fascicularis; conditions: in vivo, time 30-40 min
[3] = Drug metabolism in monkey plasma assessed as unchanged compound at 120 mins postinjection relative to control; format: ADME, organism-based, Macaca mulatta; conditions: rhesus monkey, read-out: Stability
[4] = Binding affinity to rhesus monkey 5-HT1B receptor assessed as inhibition constant; parameters: species or system Macaca mulatta
[5] = Binding affinity to rhesus monkey 5-HT1D receptor assessed as inhibition constant; parameters: species or system Macaca mulatta
D(2) dopamine receptor [6] = target: T1, D(2) dopamine receptor (Rattus norvegicus, UniProt P61169); assay: Displacement of [3H]-spiperone from rat frontal cortex membrane homogenate D2 receptor; format: cell membranes
[7] = target: T2, Alpha-1A adrenergic receptor (Rattus norvegicus, UniProt P43140); assay: Displacement of [3H]-prazosin from rat whole cortex membrane homogenate alpha 1 adrenergic receptor; format: cell membranes
T2 sequence (P43140 whole entry): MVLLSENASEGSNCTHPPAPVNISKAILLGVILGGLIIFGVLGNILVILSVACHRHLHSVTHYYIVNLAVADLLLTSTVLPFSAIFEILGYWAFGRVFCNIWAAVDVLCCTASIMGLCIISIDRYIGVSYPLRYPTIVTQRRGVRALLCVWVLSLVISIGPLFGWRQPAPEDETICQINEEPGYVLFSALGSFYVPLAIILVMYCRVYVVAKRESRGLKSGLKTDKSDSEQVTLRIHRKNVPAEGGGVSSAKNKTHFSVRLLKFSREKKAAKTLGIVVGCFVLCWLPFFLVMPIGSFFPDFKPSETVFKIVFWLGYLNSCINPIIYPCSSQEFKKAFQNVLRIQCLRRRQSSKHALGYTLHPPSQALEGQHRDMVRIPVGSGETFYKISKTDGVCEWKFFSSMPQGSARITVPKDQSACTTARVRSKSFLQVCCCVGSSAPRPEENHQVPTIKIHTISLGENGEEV

[8] = target: T2, Alpha-1A adrenergic receptor; assay: Displacement of [3H]-WB4101 from rat forebrain alpha 1 adrenergic receptors; format: tissue-based
D(2) dopamine receptor [9] = target: T1, D(2) dopamine receptor; assay: Displacement of [3H]-halopridol from rat striatum D2 receptors
[10] = Drug uptake ratio in Sprague-Dawley rat brain cingulate cortex to cerebellum measured after 20 to 30 mins by camera ClearPET LYSO/LuYAP Phoswich-scanner analysis; format: ADME, tissue-based; conditions: time 20-30 min
[11] = Drug uptake ratio in cat brain dorsal raphe nucleus to cerebellum measured after 20 to 30 mins by camera ClearPET LYSO/LuYAP Phoswich-scanner analysis; format: ADME, tissue-based, Felis catus; conditions: time 20-30 min
[12] = target: T3, 5-hydroxytryptamine receptor 1A (Homo sapiens, UniProt P08908)
T3 sequence (P08908 whole entry): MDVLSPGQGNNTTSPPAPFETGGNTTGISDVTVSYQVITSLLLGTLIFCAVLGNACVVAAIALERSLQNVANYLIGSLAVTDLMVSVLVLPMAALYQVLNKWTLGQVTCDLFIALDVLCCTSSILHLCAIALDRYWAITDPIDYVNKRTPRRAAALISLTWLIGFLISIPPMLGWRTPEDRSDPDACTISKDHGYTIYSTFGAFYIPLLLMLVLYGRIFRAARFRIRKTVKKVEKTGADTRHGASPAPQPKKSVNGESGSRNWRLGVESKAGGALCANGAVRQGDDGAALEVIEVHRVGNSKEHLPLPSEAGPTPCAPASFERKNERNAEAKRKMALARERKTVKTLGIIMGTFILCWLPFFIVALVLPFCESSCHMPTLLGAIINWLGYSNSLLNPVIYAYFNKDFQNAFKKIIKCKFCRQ

D(2) dopamine receptor [13] = target: T1, D(2) dopamine receptor; assay: Binding affinity to rat striatum homogenate membrane D2 receptor incubated for 10 mins; format: cell membranes
Histamine H1 receptor = Histamine H1 receptor (Cavia porcellus, UniProt P31389); assay: Binding affinity to guinea pig cerebellum homogenate membrane H1 receptor incubated for 30 mins; format: cell membranes
[14] = target: T2, Alpha-1A adrenergic receptor; assay: Binding affinity to rat forebrain homogenate membrane alpha 1 adrenergic receptor incubated for 10 mins; format: cell membranes
[15] = Ratio of drug uptake in human cortex to cerebellum assessed as increase in uptake relative to control; format: ADME, tissue-based
D(2) dopamine receptor [16] = target: T1, D(2) dopamine receptor; assay: Displacement of [3H]-spiperone from rat striatum D2 receptor
[17] = target: Serotonin 2 (5-HT2) receptor (Rattus norvegicus, UniProt P30994+P08909+P14842); assay: Displacement of [3H]-spiperone from rat frontal cortex 5-HT2 receptor; format: tissue-based
[18] = target: T2, Alpha-1A adrenergic receptor; assay: Displacement of [3H]prazosin from rat cerebral cortex alpha1 adrenergic receptor; format: tissue-based
[19] = target: 5-hydroxytryptamine receptor 2A (Rattus norvegicus, UniProt P14842); assay: Binding affinity to rat frontal cortex homogenate 5-HT2A by ketanserin assay; format: tissue-based
[20] = target: 5-hydroxytryptamine receptor 2A (Homo sapiens, UniProt P28223); assay: Binding affinity to human frontal cortex homogenate 5-HT2A by ketanserin assay; format: tissue-based
[21] = target: T3, 5-hydroxytryptamine receptor 1A; assay: Displacement of [3H]-8-OH-DPAT from 5HT1A receptor (unknown origin)
[22] = target: T3, 5-hydroxytryptamine receptor 1A; assay: Binding affinity to human 5-HT1A receptor expressed in CHO cells assessed as inhibition constant; format: cell-based
D(4) dopamine receptor = D(4) dopamine receptor (Homo sapiens, UniProt P21917); assay: Binding affinity to human D4 receptor expressed in CHO cells assessed as inhibition constant; format: cell-based
[23] = target: 5-hydroxytryptamine receptor 2B (Homo sapiens, UniProt P41595); assay: Binding affinity to human 5-HT2B receptor expressed in CHO cells assessed as inhibition constant; format: cell-based
[24] = target: 5-hydroxytryptamine receptor 1D (Homo sapiens, UniProt P28221); assay: Binding affinity to human 5-HT1D receptor expressed in CHO cells assessed as inhibition constant; format: cell-based
[25] = target: T4, Alpha-1A adrenergic receptor (Homo sapiens, UniProt P35348); assay: Binding affinity to human alpha 1A adrenergic receptor expressed in CHO cells assessed as inhibition constant; format: cell-based
T4 sequence (P35348 whole entry): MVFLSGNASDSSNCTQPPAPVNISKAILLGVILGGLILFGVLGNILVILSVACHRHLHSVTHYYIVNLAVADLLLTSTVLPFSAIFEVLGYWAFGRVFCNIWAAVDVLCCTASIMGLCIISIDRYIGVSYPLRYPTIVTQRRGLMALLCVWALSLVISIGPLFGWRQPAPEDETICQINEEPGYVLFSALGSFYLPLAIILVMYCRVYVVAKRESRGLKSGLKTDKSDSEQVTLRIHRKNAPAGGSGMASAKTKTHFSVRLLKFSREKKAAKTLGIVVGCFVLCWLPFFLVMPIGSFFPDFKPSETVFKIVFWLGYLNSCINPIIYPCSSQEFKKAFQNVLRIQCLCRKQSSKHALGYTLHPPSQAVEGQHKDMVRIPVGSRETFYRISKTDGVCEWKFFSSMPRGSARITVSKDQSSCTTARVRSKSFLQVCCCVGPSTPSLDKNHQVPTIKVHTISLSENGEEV

[26] = Ratio of drug uptake in monkey anterior cingulate cortex to cerebellum; format: ADME, tissue-based, Macaca mulatta; conditions: rhesus monkey, in vivo
[27] = Ratio of drug uptake in monkey hippocampus to cerebellum; format: ADME, tissue-based, Macaca mulatta; conditions: rhesus monkey, in vivo

T1 sequence (P61169 whole entry): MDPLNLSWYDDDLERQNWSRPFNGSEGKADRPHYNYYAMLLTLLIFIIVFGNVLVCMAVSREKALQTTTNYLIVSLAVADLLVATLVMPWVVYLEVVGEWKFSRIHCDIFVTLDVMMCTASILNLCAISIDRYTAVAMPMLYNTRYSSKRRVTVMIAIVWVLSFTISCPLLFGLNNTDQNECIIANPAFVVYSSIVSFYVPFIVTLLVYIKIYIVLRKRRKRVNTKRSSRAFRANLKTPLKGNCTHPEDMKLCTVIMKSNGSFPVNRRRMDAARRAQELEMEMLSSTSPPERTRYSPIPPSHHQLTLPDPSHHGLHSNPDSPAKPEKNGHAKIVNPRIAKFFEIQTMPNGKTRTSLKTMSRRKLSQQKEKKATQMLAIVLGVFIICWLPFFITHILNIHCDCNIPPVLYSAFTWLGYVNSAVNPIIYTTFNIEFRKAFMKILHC
Chain of Histamine H1 receptor (P31389 whole entry): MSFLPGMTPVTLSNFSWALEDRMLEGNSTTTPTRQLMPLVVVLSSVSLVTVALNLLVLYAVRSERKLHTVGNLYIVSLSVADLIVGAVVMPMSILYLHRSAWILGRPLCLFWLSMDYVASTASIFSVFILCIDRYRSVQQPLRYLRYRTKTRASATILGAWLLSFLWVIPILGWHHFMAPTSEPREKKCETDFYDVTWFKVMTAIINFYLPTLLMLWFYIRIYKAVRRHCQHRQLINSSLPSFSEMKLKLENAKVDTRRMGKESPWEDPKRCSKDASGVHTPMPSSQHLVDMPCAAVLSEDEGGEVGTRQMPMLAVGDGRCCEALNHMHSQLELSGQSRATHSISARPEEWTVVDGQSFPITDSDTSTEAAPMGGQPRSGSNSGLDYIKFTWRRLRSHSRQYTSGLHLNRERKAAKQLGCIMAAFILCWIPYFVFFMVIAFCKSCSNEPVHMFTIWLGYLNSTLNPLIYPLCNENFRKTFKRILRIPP
Chain of D(4) dopamine receptor (P21917 whole entry): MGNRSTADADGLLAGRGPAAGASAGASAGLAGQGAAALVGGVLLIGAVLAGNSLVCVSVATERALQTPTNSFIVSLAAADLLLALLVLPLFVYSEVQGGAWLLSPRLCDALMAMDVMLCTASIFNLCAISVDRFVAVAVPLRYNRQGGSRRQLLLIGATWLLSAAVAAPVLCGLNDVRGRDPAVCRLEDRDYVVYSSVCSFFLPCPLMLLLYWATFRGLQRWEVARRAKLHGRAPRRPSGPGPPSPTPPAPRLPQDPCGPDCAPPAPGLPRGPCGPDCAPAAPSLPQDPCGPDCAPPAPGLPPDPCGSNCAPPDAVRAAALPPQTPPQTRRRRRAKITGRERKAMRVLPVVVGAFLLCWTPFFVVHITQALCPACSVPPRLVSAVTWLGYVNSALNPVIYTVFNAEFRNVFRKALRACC
Chain of 5-hydroxytryptamine receptor 2A (Homo sapiens, UniProt P28223) (P28223 whole entry): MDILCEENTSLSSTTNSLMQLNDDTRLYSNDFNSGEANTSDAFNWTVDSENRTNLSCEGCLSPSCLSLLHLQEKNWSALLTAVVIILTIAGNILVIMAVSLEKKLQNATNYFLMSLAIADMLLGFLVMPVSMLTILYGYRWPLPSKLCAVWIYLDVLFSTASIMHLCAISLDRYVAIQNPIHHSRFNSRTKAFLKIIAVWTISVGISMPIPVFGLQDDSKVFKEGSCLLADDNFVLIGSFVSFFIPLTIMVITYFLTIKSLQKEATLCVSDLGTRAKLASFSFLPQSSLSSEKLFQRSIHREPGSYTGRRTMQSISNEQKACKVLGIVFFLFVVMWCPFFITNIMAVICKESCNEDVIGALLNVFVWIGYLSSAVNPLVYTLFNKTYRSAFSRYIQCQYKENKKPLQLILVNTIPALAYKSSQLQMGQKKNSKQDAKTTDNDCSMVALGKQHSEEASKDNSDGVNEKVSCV
Chain of 5-hydroxytryptamine receptor 2A (Rattus norvegicus, UniProt P14842) (P14842 whole entry): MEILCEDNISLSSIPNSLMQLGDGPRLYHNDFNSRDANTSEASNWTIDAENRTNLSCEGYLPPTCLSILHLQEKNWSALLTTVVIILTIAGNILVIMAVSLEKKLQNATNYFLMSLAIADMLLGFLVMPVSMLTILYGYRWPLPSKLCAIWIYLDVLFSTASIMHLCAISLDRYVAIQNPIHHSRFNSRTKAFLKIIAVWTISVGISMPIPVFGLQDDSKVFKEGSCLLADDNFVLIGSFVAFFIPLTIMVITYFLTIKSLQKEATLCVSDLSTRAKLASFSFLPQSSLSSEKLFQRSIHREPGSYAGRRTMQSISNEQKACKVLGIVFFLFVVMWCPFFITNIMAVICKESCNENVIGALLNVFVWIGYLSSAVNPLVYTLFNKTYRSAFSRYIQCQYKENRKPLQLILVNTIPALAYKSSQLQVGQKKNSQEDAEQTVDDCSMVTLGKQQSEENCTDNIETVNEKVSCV
Chain of 5-hydroxytryptamine receptor 1D (P28221 whole entry): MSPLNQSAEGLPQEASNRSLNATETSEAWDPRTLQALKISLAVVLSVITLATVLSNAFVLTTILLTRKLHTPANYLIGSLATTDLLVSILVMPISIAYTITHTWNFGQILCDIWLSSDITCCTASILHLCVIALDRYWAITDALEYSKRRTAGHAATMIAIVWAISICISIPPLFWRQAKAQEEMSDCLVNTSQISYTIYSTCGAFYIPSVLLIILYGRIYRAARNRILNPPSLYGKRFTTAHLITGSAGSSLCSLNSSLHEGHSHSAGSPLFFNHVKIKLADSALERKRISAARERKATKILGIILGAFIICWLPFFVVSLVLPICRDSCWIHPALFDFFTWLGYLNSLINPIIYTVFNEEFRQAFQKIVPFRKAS
Chain of 5-hydroxytryptamine receptor 2B (P41595 whole entry): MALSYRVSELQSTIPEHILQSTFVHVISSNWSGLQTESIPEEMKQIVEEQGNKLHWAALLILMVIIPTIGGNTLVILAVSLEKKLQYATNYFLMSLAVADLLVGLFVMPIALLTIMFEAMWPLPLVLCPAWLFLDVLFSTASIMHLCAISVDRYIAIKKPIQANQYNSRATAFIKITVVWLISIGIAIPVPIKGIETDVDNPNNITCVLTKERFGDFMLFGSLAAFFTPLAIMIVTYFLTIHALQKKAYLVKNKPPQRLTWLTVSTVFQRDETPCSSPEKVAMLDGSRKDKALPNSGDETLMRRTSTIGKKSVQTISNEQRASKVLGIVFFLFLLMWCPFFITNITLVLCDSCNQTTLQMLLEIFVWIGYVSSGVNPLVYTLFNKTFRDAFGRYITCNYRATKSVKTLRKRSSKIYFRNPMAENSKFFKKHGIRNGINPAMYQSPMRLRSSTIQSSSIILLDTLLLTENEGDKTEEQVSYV

[11CH3]N1CCN(c2cc(F)cc3c(=O)cc(C(=O)Nc4ccc(N5CCOCC5)c(F)c4)oc23)CC1 gave a Ratio [1] of 2.2, a Ratio [2] of 2.5 and a remaining at 2 h [3] greater than 40%.

Work on COC(C)(C)c1ccc(N2CC[C@@H](Cc3ccccc3N3CCN(C)CC3)C2=O)cc1 yielded a Ki [4] of 1.2 nM and a Ki [5] of 12 nM.

Work on CCN(CC)C(=O)[C@@H]1C=C2c3cccc4c3c(c(Br)n4C)CC2N(C)C1 (some centres undefined) yielded a Ki (D(2) dopamine receptor [6]) of 3.9 nM and a Ki [7] of 34 nM.

In the case of O=C(c1ccc(F)cc1)C1CCN(CCn2c(=S)[nH]c3ccccc3c2=O)CC1 [ALTANSERIN], the Ki [8] is reported as 5 nM and the Ki (D(2) dopamine receptor [9]) is reported as 62 nM.

Cc1cnc(CNCC2(F)CCN(C(=O)c3ccc([18F])c(Cl)c3)CC2)nc1 gave a Ratio [10] of 1.6, a Ratio [11] of 1.5 and a Ki [12] of 2.24 nM.

Compound O=C(c1ccc(F)cc1)C1CCN(CCn2c(=O)[nH]c3ccccc3c2=O)CC1 [KETANSERIN] has a Ki (D(2) dopamine receptor [13]) of 220 nM, a Ki (Histamine H1 receptor) of 10 nM and a Ki [14] of 10 nM.

Work on [2H]C([2H])(Cn1c(=S)[nH]c2ccccc2c1=O)N1CCC(C(=O)c2ccc([18F])cc2)CC1 yielded a Drug uptake [15] of 26%.

Work on CN1CN(c2ccccc2)C2(CCN(CCCC(=O)c3ccc(F)cc3)CC2)C1=O [MESPIPERONE] yielded an IC50 (D(2) dopamine receptor [16]) of 0.23 nM, an IC50 [17] of 1.3 nM and an IC50 [18] of 10.1 nM. It also gave a Ki [19] of 0.5 nM and a Ki [20] of 8.8 nM.

Compound CSc1cccc(C(=O)NC[C@@H]2CCCN2CCc2ccccc2)c1 has a Ki [21] of 4.3 nM.

In the case of O=C(NCCN1CCN(c2cccc3c2OCCO3)CC1)c1ccc(F)cc1, the Ki [22] is reported as 0.1 nM, the Ki (D(4) dopamine receptor) is reported as 4 nM and the Ki [23] is reported as 46 nM. The Ki [24] was 25 nM and the Ki [25] was 40 nM.

Compound O=C(NCCN1CCN(c2cccc3c2OCCO3)CC1)c1ccc([18F])cc1 has a Ratio [26] of 1.7 and a Ratio [27] of 1.7.
